The values that follow come from patent publication US4824937A, “Synthetic natriuretic peptides” (501 Advanced Peptide Development, Ltd., priority 1986, dated 1989).

Ends that are not written are not given here.

The test concerns rabbit thoracic aorta strips. The experiment in a line: Vasorelaxant activity against noradrenaline-induced tension in aorta strips. The following applies: for Relative Potency: potency of BG-3009 taken arbitrarily as 100; for Ratio (noradrenaline EC50 in the presence of compound divided by EC50 with noradrenaline alone): added 5 min before noradrenaline. As for the experimental part: The vasorelaxant activities of the SNP of this invention are determined in vitro using freshly prepared rabbit thoracic aorta strips, helically cut according to the method of Furchgott et al., 1953 J. Pharmacol. Exp. Therap. 108, 129. One end of each strip is attached to a holding rod, the other end is equipped with a silk thread which is kept under a tension of about 5 g, and the complete assembly is kept over night at 4° C. in oxygenated Krebs solution. On the day of the experiment each strip is set up in a 10 ml bath of oxygenated (5% CO2) Krebs solution at 37° C. and the thread is attached to an isometric force transducer (Grass Instruments Model FT.03) connected to a polygraph (Grass Instruments Model 5). A resting tension of 5 g is applied to each strip and is readjusted until a stable resting tension is attained (45-60 minutes). The strips are then challenged repeatedly with the same dose of noradrenaline to ensure that the induced increase in tension is uniform. The stock solution of noradrenaline bitartrate (Sigma Chemical Co.) is made up in 0.001N HCl, and dilutions are freshly prepared in deionized water containing 0.0001M ascorbic acid and are kept protected from light during the experiments. In each experiment two cumulative full dose-response determinations to noradrenaline alone are carried out consecutively on one strip (time control). On the other strips dose-response determinations are done with noradrenaline alone, and then repeated five minutes after having added the compound to be tested to concentrations of 2, 5, 50, and 500 ng/ml, respectively. The tension elicited by each concentration of noradrenaline is expressed as a percentage of the maximal response obtained with noradrenaline, and the concentration of noradrenaline producing a tension equal to 50% of the maximal response is calculated (EC50). The same calculations are also carried out with the results obtained in the presence of the various concentrations of the compound to be tested, and the EC50 thus obtained is divided by the EC50 obtained in the absence of said compound, to arrive at a ration which is clear indication of the potency of the respective compound.
The SNP of formula 1 in which R^1 is H-D-Tyr, R^2 is Ile, and R^3 is OH, identified by the code number 05-22-0318 is tested for its vasorelaxant activities and compared with a known ANP composed of 28 amino acid residues and identified by the code number BG-3009. The test method is described above in some detail. Two rabbits are sacrificed and the thoracic aorta prepared from each animal is helically cut so as to obtain five strips from each aorta. One strip from each aorta is used for time control and is exposed to the full range of concentrations of noradrenaline alone at the beginning and at the end of the experiment, and the concentrations of noradrenaline giving 50% of the maximal response are calculated (EC50). […] One strip from each of the remaining two pairs of strips from each aorta is then exposed to the full range of concentrations of noradrenaline alone as described above, and the responses are noted. The other strip from the same pair is first exposed to concentrations of 2, 5, 50, and 500 ng/ml of the compound to be tested, respectively, and five minutes after having added the above concentrations of the compound to be tested the strip is challenged with noradrenaline at increasing concentrations and the responses obtained are noted again. The EC50 obtained in the presence of the respective concentration of the compound to be tested is then divided by the EC50 obtained in the absence of said compound with noradrenaline alone, and the ratio of the two EC50's is calculated to give a clear measure of the vasorelaxant properties of said compound. Furthermore, when taking the potency of the reference compound having the code number BG-3009 arbitrarily as 100 the relative potencies of the above SNP (code No. 05-22-0318) at the respective levels of concentration are also calculated. […]

“BG-3009: known ANP composed of 28 amino acid residues, identical with the ANP described by Flynn et al. (SLRRSSCFGGRIDRIGAQSGLGCNSFRY; not fully specified; ends and bridges not checked; UniProt P01161 123-150, looked up)”: the “Relative Potency” value (2 ng/ml) is given as 100, the “Relative Potency” value (5 ng/ml) came to 100, the “Relative Potency” value (50 ng/ml) was 100 and the “Relative Potency” value (500 ng/ml) is 100. For the same substance, the “Ratio (noradrenaline EC50 in the presence of compound divided by EC50 with noradrenaline alone)” value runs as follows: (compound concentration 2 ng/ml) 2.9; (compound concentration 5 ng/ml) 3.8; (compound concentration 50 ng/ml) 25.8; (compound concentration 500 ng/ml) 26.1.
